Data from patent US20080171716A1, “NUCLEIC ACID MODULATION OF TOLL-LIKE RECEPTOR-MEDIATED IMMUNE STIMULATION” (Protiva Biotherapeutics, Inc., priority 2006, published 2008).

How the values were obtained:
[1] = target: T1, TLR7 (Mus musculus, UniProt P58681); assay: In vivo cytokine induction by formulated ssRNA in mice; design: from tissue; host or cells: whole animal: female Balb/C mice, plasma cytokines; species or system Balb/C mice; details: IV
T1 sequence (P58681 27-1050): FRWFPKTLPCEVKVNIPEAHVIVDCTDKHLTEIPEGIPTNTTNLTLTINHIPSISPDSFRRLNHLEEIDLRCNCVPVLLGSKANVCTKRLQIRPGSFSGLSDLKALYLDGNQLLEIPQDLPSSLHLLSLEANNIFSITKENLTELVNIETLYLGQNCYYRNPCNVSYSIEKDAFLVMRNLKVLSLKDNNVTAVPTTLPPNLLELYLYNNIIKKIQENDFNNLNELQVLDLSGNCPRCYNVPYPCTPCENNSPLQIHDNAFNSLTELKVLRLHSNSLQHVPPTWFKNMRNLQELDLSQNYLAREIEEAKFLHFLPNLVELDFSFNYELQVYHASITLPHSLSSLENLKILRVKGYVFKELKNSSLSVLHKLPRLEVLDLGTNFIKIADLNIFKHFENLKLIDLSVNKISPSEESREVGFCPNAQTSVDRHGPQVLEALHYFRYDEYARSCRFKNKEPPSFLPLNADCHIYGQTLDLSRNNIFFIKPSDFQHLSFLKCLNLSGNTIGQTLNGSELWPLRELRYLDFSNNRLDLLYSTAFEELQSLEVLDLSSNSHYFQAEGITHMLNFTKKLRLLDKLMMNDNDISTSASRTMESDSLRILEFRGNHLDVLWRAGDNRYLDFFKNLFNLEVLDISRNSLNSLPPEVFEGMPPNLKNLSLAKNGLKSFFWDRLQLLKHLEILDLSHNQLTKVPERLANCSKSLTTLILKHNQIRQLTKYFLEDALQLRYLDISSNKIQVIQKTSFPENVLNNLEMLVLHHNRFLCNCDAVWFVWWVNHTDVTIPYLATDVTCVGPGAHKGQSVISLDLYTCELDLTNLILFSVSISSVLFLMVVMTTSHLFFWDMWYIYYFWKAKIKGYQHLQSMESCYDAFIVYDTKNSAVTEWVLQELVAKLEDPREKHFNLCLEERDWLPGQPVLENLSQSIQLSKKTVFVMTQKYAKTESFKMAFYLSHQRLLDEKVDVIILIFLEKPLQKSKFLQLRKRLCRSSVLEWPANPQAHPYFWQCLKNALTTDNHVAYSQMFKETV
Description: (§1) Cytokine ELISA. All cytokines were quantified using sandwich ELISA kits according to the manufacturer's instructions. These were mouse and human IFN-α (PBL Biomedical; Piscataway, N.J.) and IL-6 (eBioscience; San Diego, Calif.).
(§2) In Vivo Cytokine Induction. Animal studies were performed at Protiva Biotherapeutics in accordance with Canadian Council on Animal Care guidelines and following protocol approval by the local Animal Care and Use Committee. Female Balb/C mice were subjected to a two-week quarantine and acclimation period prior to use at six to eight-weeks of age. RNA formulations were administered by standard injection in the lateral tail vein in 0.2 ml PBS. Six hours after injection, blood was collected by cardiac puncture and processed as plasma for cytokine analysis. In experiments studying inhibition of cytokine induction by loxoribine, formulated RNA (100 μg) was administered IV 2 h prior to IV administration of 1 mg loxoribine in PBS. Blood was collected by cardiac puncture 2 h after administration of loxoribine and processed as plasma for cytokine analysis.

[2] = target: T1, TLR7; assay: In vivo inhibition of loxoribine-mediated cytokine induction in mice; design: from tissue; host or cells: whole animal: female Balb/C mice, plasma cytokines; species or system Balb/C mice
Description: as §1, §2

[3] = 1:1 molar ratio in lipid particles, 40 μg βgal AS RNA, plasma 6 h
[4] = plasma 6 h after administration
[5] = 100 μg formulated RNA IV 2 h prior to 1 mg Lox IV, plasma 2 h after Lox

polyUmod21: 2′OMe-uridine homopolymer of 21 nucleotides in length (UUUUUUUUUUUUUUUUUUUUU; all 2'-O-methyl, backbone not given here)
IFN-α induction by ssRNA agonist when co-formulated [1, 3]: eliminated measurable
IL-6 induction by ssRNA agonist when co-formulated [1, 3]: eliminated measurable
plasma IFN-α after administration of the formulated RNA alone [1, 4]: no measurable cytokine response
plasma IL-6 after administration of the formulated RNA alone [1, 4]: no measurable cytokine response
reduction of plasma IFN-α compared to PBS pre-treatment [2, 5]: 79%+/−5%
reduction of plasma IFN-α compared to mice treated with GFP-S ssRNA [2, 5]: 92%+/−2%
reduction of plasma IL-6 compared to PBS pre-treatment [2, 5]: 72%+/−8%
reduction of plasma IL-6 compared to mice treated with GFP-S ssRNA [2, 5]: 96%+/−1%
loxoribine-mediated cytokine induction relative to GFP-S ssRNA and PBS treated mice ([2]; pre-treatment 2 h prior to 1 mg Lox): significantly reduced
